Experiments:
Type in all cases: biochemical
PhCHD, MBP-PhCHD = target: T1, PhCHD, MBP-PhCHD (Petunia x hybrida, UniProt J9YIZ4); assay: product detection by LC-UV-MS; settings: positive control; AIM1 assay conditions, 0.5 mM CA-CoA, 1 mM NAD+, Tris-HCl pH 7.5, 30 °C
T1 construct: gene CHD; synthesized gene in pMAL-c5X, MBP fusion, E. coli BL21 (DE3), amylose resin
T1 sequence (J9YIZ4 1-724): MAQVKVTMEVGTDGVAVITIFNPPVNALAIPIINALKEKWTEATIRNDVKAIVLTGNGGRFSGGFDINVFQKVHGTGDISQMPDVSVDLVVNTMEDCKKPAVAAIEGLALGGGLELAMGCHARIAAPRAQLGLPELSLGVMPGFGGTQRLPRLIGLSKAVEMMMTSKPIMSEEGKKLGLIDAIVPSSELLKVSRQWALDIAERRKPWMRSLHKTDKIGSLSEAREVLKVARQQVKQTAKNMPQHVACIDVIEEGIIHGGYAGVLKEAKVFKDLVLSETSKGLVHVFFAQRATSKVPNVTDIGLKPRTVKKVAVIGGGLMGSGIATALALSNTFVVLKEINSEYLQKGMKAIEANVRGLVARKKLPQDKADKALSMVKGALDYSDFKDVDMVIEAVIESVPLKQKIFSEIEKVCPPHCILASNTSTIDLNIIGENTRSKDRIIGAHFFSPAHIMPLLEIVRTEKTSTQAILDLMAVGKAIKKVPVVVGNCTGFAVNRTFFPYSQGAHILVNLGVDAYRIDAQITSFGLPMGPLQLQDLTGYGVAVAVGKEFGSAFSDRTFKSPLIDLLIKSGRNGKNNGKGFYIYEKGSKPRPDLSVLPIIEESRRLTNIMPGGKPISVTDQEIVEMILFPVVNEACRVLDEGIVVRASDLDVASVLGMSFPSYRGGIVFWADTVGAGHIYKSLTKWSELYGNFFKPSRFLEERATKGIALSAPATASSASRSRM

AIM1 (OsCHD), MBP-AIM1 = target: T2, AIM1 (OsCHD), MBP-AIM1 (Oryza sativa, UniProt Q8W1L6); assay: product detection by LC-UV-MS; settings: 0.5 mM CA-CoA, 1 mM NAD+, 100 mM Tris-HCl pH 7.5, MgCl2, KCl, pyruvate / lactate dehydrogenase, 30 °C
T2 construct: gene MFP; CDS from rice cDNA in pMAL-c2X, MBP fusion, E. coli BL21 (DE3), amylose resin
T2 sequence (Q8W1L6 1-726): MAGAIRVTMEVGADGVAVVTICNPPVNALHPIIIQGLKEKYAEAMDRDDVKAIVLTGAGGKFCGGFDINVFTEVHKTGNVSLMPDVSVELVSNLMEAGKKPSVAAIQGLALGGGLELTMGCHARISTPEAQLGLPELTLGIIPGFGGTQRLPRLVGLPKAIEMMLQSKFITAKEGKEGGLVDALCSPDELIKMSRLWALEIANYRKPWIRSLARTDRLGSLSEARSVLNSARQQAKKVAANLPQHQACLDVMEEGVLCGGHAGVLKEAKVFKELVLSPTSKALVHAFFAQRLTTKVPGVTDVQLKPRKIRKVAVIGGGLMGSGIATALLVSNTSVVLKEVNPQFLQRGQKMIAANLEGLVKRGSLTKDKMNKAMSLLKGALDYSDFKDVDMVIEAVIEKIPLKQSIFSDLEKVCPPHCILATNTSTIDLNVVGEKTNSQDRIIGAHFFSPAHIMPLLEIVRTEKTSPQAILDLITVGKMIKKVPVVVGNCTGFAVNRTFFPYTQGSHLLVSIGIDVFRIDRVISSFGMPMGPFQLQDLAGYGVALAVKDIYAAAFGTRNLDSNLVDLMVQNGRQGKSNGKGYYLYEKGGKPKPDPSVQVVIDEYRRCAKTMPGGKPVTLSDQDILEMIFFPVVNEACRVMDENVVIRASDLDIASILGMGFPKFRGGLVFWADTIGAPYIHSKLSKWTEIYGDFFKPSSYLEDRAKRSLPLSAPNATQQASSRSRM

OSD3, Flag-OSD3 = target: T3, OSD3, Flag-OSD3 (Oryza sativa, UniProt Q69P73); assay: product detection by LC-UV-MS, yeast microsomes; settings: 50 µM BB, 5 mM NADPH, 80 mM sodium phosphate pH 7.0, 5 mM DTT, 30 °C
T3 construct: gene Os09g0441400; Flag fusion in pESC-URA, microsomes of yeast strain WAT11
T3 sequence (Q69P73 1-514): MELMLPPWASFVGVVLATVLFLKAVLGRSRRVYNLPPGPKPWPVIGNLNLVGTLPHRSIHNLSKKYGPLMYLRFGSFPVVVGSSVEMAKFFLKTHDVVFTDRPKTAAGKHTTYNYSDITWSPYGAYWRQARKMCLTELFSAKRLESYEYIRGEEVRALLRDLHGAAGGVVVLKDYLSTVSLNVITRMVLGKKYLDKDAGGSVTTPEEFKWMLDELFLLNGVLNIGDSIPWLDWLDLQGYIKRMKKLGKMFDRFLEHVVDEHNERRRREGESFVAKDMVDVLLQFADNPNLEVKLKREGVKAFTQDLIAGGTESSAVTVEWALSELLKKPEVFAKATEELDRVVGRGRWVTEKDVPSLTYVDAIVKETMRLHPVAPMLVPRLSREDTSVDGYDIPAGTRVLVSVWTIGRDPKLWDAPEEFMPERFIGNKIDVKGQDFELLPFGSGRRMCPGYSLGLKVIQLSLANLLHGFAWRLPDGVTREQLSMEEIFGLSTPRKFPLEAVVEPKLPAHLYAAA

| Compound | product detection by LC-UV-MS (PhCHD, MBP-PhCHD) | product detection by LC-UV-MS (AIM1 (OsCHD), MBP-AIM1) | product detection by LC-UV-MS, yeast microsomes (OSD3, Flag-OSD3) |
| --- | --- | --- | --- |
| CC(C)(COP(=O)(O)OP(=O)(O)OC[C@H]1O[C@@H](n2cnc3c(N)ncnc32)[C@H](O)[C@@H]1OP(=O)(O)O)[C@@H](O)C(=O)NCCC(=O)NCCSC(=O)CC(=O)c1ccccc1 [benzoylacetyl-CoA] | used it to produce a BAc-CoA standard | confirming the product of AIM1 as BAc-CoA | – |
| O=C(OCc1ccccc1)c1ccccc1 [benzyl benzoate] | – | – | OSD3 acts as a benzyl benzoate 2-hydroxylase (BB2H) to catalyse the hydroxylation of BB |
| O=C(OCc1ccccc1)c1ccccc1O [benzyl salicylate] | – | – | to catalyse the hydroxylation of BB, yielding BS |
| CC(C)(COP(=O)(O)OP(=O)(O)OC[C@H]1O[C@@H](n2cnc3c(N)ncnc32)[C@H](O)[C@@H]1OP(=O)(O)O)[C@@H](O)C(=O)NCCC(=O)NCCSC(=O)/C=C/c1ccccc1 [cinnamoyl-CoA] | The MBP–PhCHD enzyme was used as a positive control | AIM1 functions as a CA-CoA hydratase-dehydrogenase for converting CA-CoA to BAc-CoA | – |

Reference: article PMC12408352, “Complete biosynthesis of salicylic acid from phenylalanine in plants” (Nature, 2025)
